Results on 14 compounds are retold here after ChEMBL document CHEMBL5126497, “2-Difluoromethylpyridine as a bioisosteric replacement of pyridine-N-oxide: the case of quorum sensing inhibitors” (RSC Med Chem, 2021).

Activity calls are given as the source filed them. The rule behind the calls is not given here.

A word on the inhibition: it is how much of the control response was suppressed. As usually defined, the IC50 is the concentration that inhibits the measured activity by half. Read a low IC50 as higher potency.

Test [1] in a line: Inhibition of quorum sensing system in Pseudomonas aeruginosa transfected with lasB-gfp.
The species named for the next test is Homo sapiens. As to the kind of experiment: Activation of protease (unknown origin). As to conditions: filed as activator.
A further test has as its system Pseudomonas aeruginosa. As to the kind of experiment: Inhibition of biofilm formation in Pseudomonas aeruginosa at 100 uM measured after 48 hrs relative to control. The test is classed as functional.
The nature of test [2]: Inhibition of quorum sensing system in Chromobacterium violaceum ATCC 31352 assessed as reduction in violacein production at 100 uM relative to control.

On to `FC(F)c1cc(-c2ccccc2)ccn1`, for which the inhibition entry in test [1] was “Active”.

Take `COC(=O)c1ccncc1C(F)F`: the inhibition entry in test [1] is “Active”.

For `COC(=O)c1ccnc(C(F)F)c1`, in the test listed under Homo sapiens, the result was Active. The IC50 in test [1] is 27 µM. The same compound yielded an inhibition at 100 µM in the test with Pseudomonas aeruginosa of 75%. For the same compound, in test [2], the inhibition turned out to be 59%.

For the compound `FC(F)c1cc(Cc2ccc(Cl)cc2)ccn1`, the inhibition result in test [1] was “Active”.

For the compound `FC(F)c1ccncc1`, the inhibition result in test [1] was “Active”.

Consider `FC(F)c1ccc2ccccc2n1`, for which the inhibition result in test [1] was “Active”.

Regarding `FC(F)c1cccnc1`, the inhibition result in test [1] is “Active”.

As for `O=C(c1ccc(Cl)cc1)c1ccnc(C(F)F)c1`, in the test filed under Homo sapiens, the outcome was Active. Further, the IC50 in test [1] amounted to 35 µM. In addition, testing at 100 µM in the test on Pseudomonas aeruginosa gave an inhibition of 73%. In addition, the inhibition in test [2] was 57%.

Turning to `FC(F)c1cc(Oc2ccccc2)ccn1`, the inhibition entry in test [1] was “Active”.

Regarding `N#Cc1cc[n+]([O-])cc1`, the inhibition result in test [1] is “Active”.

For `FC(F)c1nccc2ccccc12`, the inhibition entry in test [1] is “Active”.

As for `N#Cc1ccnc(C(F)F)c1`, the outcome in the test listed under Homo sapiens was Active. Also, it took 19 µM to reach half-maximal inhibition in test [1] (IC50). This compound also yielded an inhibition at 100 µM with Pseudomonas aeruginosa of 85%. Further, the inhibition in test [2] was found to be 66%.

With `O=[N+]([O-])c1cc[n+]([O-])cc1`, the outcome in the test filed under Homo sapiens was Active. Further, the IC50 in test [1] was 33 µM. Besides, in the test on Pseudomonas aeruginosa, the inhibition at 100 µM amounted to 71%. The inhibition in test [2] is 37.5%.

Regarding `FC(F)c1ccccn1`, the inhibition entry in test [1] is “Active”.
